These results are taken from patent US20230399303A1, “Macrophage Migration Inhibitory Factor Inhibitors, and Methods of Making and Using Same” (YALE UNIVERSITY, priority 2020, published 2023).

This assay deals with T1, MIF (Homo sapiens, UniProt P14174).
T1 sequence (P14174 2-115 limits assumed): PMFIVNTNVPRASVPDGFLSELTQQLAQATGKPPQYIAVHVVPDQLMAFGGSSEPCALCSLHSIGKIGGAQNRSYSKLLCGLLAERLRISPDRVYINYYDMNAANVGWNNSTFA
In words: Competitive fluorescence polarization (FP) assay with tracer ligand B. In kind it is binding. The settings on record: MIF Inhibition by Compounds of formula (Ia); Kd calculated from the IC50 of the competitive FP assay, fluorescent ligand B as tracer. As to the method: Determination of the affinities for A and B by FP assay. Determination of Kd values for the tracers followed previously reported protocols for other proteins. Experiments are carried out by quadruplicates in three independent experiments. In a flat black bottom 96 well plate (Corning), add to the third column 300 μL of 1.8 μM MIF in FP buffer (20 mM HEPES, 150 mM NaCl, 0.01% Tween-20, pH 7.4). From this column, using a multichannel pipette make serial dilutions (1:2) into the following wells to a total volume of 150 μL. First column contains 200 μL buffer and is used as a blank, while second column contains 150 μL buffer. 2 μL of DMSO are added to each well to keep 1% of DMSO, followed by the addition of 16.7 nM ligand A or B (48 μL) except first column (blank). Fluorescence polarization is measured at λexc=485±20 nm, λem=535±25 nm using an Infinite F500 plate reader until no FP variation was observed (typically 1 h). From the lowest and highest FP values (tracer free and tracer fully bound to MIF) we calculated the fraction of ligand bound to the protein to ligand total (Lb/Lt) for each concentration of MIF.
Competitive FP assay. In order to calculate the Kd values of the unlabeled compounds, competitive assays were carried out in quadruplicates in three independent experiments. In a flatblack bottom 96 well plate (Corning) 140 μL of FP buffer are added to columns 3-12. First column contains 200 μL buffer (blank), while second column contains 150 μL FP buffer. 10 μL of 1.1 μM MIF are added to columns 3-12 followed by the addition of 2 μL of inhibitor in DMSO at 9 different concentrations. 2 μL of DMSO are added to columns 1-3. After 20 min of incubation at rt 48 μL of 16.7 nM ligand B are added to columns 2-12 and fluorescencepolarization was measured at λexc=485±20 nm, λem=535±25 nm for 1 h. Data are analyzed by a least-squares non-linear fit, generated using Prism 6 in order to determine the compound's IC50. Kd values for each inhibitor are calculated using the following equation based on the IC50, Kd of the tracer (K^t), total (Lt) and bound (Lb) tracer, as well as total MIF concentration (Pt). Samples of 4-IPP and Pontamine Sky Blue were purchased both from Tocris and Santa Cruz Biotechnology.

Regarding `COCCOc1ccc(N2Cc3ccc(O)cc3OC2=O)cc1` [Compound C1], the dissociation constant (Kd) (commonly the free concentration of one partner at which half of the binding sites on the other are occupied at equilibrium, for simple one-to-one binding) is 6 ± 1 nM.
As for `O=C1Oc2cc(O)ccc2CN1c1ccc(OCCOCCOc2cccc(N3CCOCC3)c2)cc1` [Compound C9], the equilibrium dissociation constant (Kd) was 53 ± 7 nM.
With `O=C1Oc2cc(O)ccc2CN1c1ccc(OCCOCCOCCN2CCOCC2)cc1` [Compound C7] the figure was 23 ± 6 nM; with `O=C1Oc2cc(O)ccc2CN1c1ccc(C23CC4CC(CC(C4)C2)C3)cc1` [Compound C6], 828 ± 44 nM.
For `O=C1Oc2cc(O)ccc2CN1c1ccc(OCCOCCN2CCOCC2)cc1` [Compound C3, 7-Hydroxy-3-(4-(2-(2-morpholinoethoxy)ethoxy)phenyl)-3,4-dihydro-2H-benzo[e][1,3]oxazin-2-one] the value was 23 ± 13 nM.
For `O=C(O)CCCOc1ccc(N2Cc3ccc(O)cc3OC2=O)cc1` [Compound C4] the value was 22 ± 8 nM.
On to `O=C1Oc2cc(O)ccc2CN1c1ccc(OCCOCCN2CCOc3ccccc32)cc1` [Compound C10, 3-(4-(2-(2-(2,3-Dihydro-4H-benzo[b][1,4]oxazin-4-yl)ethoxy)ethoxy)phenyl)-7-hydroxy-3,4-dihydro-2H-benzo[e][1,3]oxazin-2-one], for which the Kd was 16 ± 1 nM.
For `O=C1Oc2cc(O)ccc2CN1c1ccc(OCCN2CCOCC2)cc1` [Compound C8, 7-Hydroxy-3-(4-(2-morpholinoethoxy)phenyl)-3,4-dihydro-2H-benzo[e][1,3]oxazin-2-one], the Kd was 12 ± 1 nM.
With `COCCOCCOc1ccc(N2Cc3ccc(O)cc3OC2=O)cc1` [Compound C2] the figure was 16 ± 5 nM.
